On the set-up of series [1]: method as in PMID 24174343. Conditions: previous report; cited from earlier work.
A further series has as its target T1, σ-2 receptor (Rattus norvegicus, UniProt Q5U3Y7).
T1 construct: Rat liver preparations (about 100 μg protein) were incubated in quadruplicate; from tissue; host or cells: liver of male Sprague-Dawley rats
T1 sequence (Q5U3Y7 1-176): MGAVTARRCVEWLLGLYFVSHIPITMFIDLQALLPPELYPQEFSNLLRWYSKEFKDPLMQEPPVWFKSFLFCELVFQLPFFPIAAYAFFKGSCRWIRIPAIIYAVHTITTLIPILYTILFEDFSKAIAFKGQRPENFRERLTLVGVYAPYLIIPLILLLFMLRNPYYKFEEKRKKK
Kind of series: σ-2 receptor competitive binding with [3H]DTG in rat liver preparations. Conditions: read-out: Ki σ-2.

For a further series, the target named is T2, VAChT (Rattus norvegicus, UniProt Q62666).
T2 construct: The rats were sacrificed 60 minutes after injection and their brains collected; from tissue; host or cells: brain of live male Sprague-Dawley rats (in vivo)
T2 sequence (Q62666 1-530): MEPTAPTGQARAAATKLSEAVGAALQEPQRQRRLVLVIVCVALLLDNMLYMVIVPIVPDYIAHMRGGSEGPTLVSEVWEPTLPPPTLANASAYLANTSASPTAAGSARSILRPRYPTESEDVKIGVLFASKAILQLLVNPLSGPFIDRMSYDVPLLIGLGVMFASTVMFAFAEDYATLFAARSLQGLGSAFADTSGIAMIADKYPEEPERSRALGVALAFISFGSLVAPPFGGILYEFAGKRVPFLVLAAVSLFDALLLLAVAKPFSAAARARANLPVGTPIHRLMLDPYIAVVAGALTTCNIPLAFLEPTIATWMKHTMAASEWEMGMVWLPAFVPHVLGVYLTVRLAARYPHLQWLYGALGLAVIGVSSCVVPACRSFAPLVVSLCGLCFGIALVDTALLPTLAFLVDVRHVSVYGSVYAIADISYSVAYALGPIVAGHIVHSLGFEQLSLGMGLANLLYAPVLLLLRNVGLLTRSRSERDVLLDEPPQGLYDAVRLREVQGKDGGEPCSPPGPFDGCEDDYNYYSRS
Kind of series: VAChT in vitro competitive binding with (-)-[3H]vesamicol in rat brain preparations. To be noted: read-out: Ki VAChT.

The target in a further series is σ-1 receptor (Rattus norvegicus, UniProt Q9R0C9). Kind of series: σ-1 receptor competitive binding with (+)-[3H]pentazocine in rat cerebrum preparations.

Where two headings read alike, the source gives them in different places.

σ-1 receptor, sequence (Q9R0C9 whole entry): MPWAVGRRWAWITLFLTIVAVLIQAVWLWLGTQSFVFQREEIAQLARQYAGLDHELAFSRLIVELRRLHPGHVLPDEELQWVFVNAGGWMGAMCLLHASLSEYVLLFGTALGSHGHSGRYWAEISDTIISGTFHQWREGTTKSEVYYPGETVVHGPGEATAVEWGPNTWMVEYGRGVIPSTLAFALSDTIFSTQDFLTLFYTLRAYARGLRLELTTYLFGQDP
Procedure for σ-1 receptor: The incubated samples were treated in the same manner as described for the VAChT binding assays, except that Whatman GF/B glass fiber filters were used.
(§1) Ki values were calculated using Graphpad Prism (GraphPad Software, Inc. San Diego, USA).
Procedure for σ-2 receptor: Rat brain and liver tissue preparations were prepared from dissected brains (not including the cerebellum) and livers from male Sprague-Dawley rats (250–300 g), as previously described[34].
The incubated samples were treated in the same manner as described for the σ-1 receptor binding assay.
as §1

Consider `OC1C[C@@H]2CCCC[C@H]2CC1N1CCC(c2ccccc2[125I])CC1` (mixture of isomers) [racemic [^125I]OIDV], for which, in series [1], the “radiolabeled metabolites in the brain” value is given as “unable to observe the presence of radiolabeled metabolites in the brain”.

Turning to `O[C@@H]1C[C@H]2CCCC[C@@H]2C[C@H]1N1CCC(c2ccccc2I)CC1` [(-)-OIDV], the results for the inhibitory constant (Ki) on σ-2 receptor, at VAChT and at σ-1 receptor were 59.9 ± 10.6 nM, 22.1 ± 4.3 nM and 168 ± 47.2 nM, respectively.

Regarding `OC1CC2CCCCC2CC1N1CCC(c2ccccc2)CC1` (stereo not shown) [DV, decalinvesamicol], the Ki – broadly, a measure of affinity in units of concentration, obtained from inhibition or displacement – is 65.9 ± 12.1 nM at σ-2 receptor (rat liver preparations, 5 nM [3H]DTG, 1 μM (+)-pentazocine to mask σ-1, 37°C 90 min, mean ± SD); 8.6 ± 2.5 nM on VAChT (rat brain preparations, (-)-[3H]vesamicol, 200 nM DTG to mask sigma receptors, 37°C 60 min, mean ± SD); 74.4 ± 12 nM on σ-1 receptor (read-out: Ki σ-1, rat cerebrum preparations, 5 nM (+)-[3H]pentazocine, 37°C 90 min, mean ± SD).

The record behind these values is publication PMC4713475, “In Vivo Differences between Two Optical Isomers of Radioiodinated o-iodo-trans-decalinvesamicol for Use as a Radioligand for the Vesicular Acetylcholine Transporter” (PLoS ONE, 2016).
